“And” between values parts separate entries of the source, which are not always exact repeats. Identical values can stand only once.
Experiments:
DNA-PK = DNA-PK (Homo sapiens, UniProt P78527); assay: DNA-PK inhibition assay (standard radiometric 33P-ATP kinase assay); type: biochemical; settings: 100 μM ATP, approx. 6 nM DNA-PK
Procedure: Compounds were screened for their ability to inhibit DNA-PK kinase using a standard radiometric assay. Briefly, in this kinase assay the transfer of the terminal ^33P-phosphate in ^33P-ATP to a peptide substrate is interrogated. The assay was carried out in 384-well plates to a final volume of 50 μL per well containing approximately 6 nM DNA-PK, 50 mM HEPES (pH 7.5), 10 mM MgCl2, 25 mM NaCl, 0.01% BSA, 1 mM DTT, 10 μg/mL sheared double-stranded DNA (obtained from Sigma), 0.8 mg/mL DNA-PK peptide (Glu-Pro-Pro-Leu-Ser-Gln-Glu-Ala-Phe-Ala-Asp-Leu-Trp-Lys-Lys-Lys, obtained from American Peptide), and 100 μM ATP.
Accordingly, compounds of the invention were dissolved in DMSO to make 10 mM initial stock solutions. Serial dilutions in DMSO were then made to obtain the final solutions for the assay. A 0.75 μL aliquot of DMSO or inhibitor in DMSO was added to each well, followed by the addition of ATP substrate solution containing ^33P-ATP (obtained from Perkin Elmer). The reaction was started by the addition of DNA-PK, peptide and ds-DNA. After 45 min, the reaction was quenched with 25 μL of 5% phosphoric acid. The reaction mixture was transferred to MultiScreen HTS 384-well PH plates (obtained from Millipore), allowed to bind for one hour, and washed three times with 1% phosphoric acid. Following the addition of 50 μL of Ultima Gold™ high efficiency scintillant (obtained from Perkin Elmer), the samples were counted in a Packard TopCount NXT Microplate Scintillation and Luminescence Counter (Packard BioScience). The Ki values were calculated using Microsoft Excel Solver macros to fit the data to the kinetic model for competitive tight-binding inhibition.

mPB CD34+ cells [1] = assay: Gene editing rates in CD34+ cells, Example 19 (lower sgRNA and ssODN); type: cell-based, human; settings: for % HDR: NAV1.7, 48 h
Procedure: Primary human mobilized peripheral blood (mPB) CD34^+ hematopoietic stem and progenitor cells (HSPCs) were purchased from Hemacare or AllCells. Cells were thawed, washed and resuspended in complete medium comprised of serum free medium CellGro SCGM (CellGenix) and supplemented with cytokine mix (300 ng/mL SCF, 300 ng/mL Flt3 L, 100 ng/mL TPO, 60 ng/ml IL-3) at a density of 1-3×10^5 cells per mL and incubated at 37° C./5% CO2 incubator for 48 hours prior to electroporation.
(§1) CD34^+ cells were electroporated two days post thaw. The following conditions were used for electroporation: 2.0×E6 cells, 15 μg Cas9 protein (Feldan), 15 μg sgRNA, 1 μM of ssODN in 100 μl of P3 electroporation buffer using program CA-137. Electroporated cells were transferred by equally dividing them into eight wells of a 24-well plate, each well containing various concentrations of DNA-PK inhibitors. Cells were incubated at 37° C. in a 5% CO2 incubator for two days and evaluated for cell viability and gene editing.
Genomic DNA was isolated by incubating cells with 50 ul DNA Quickextract solution (Epicentre) per well of 96 well plate for 30 min at 37° C. Cellular extract was mixed and transferred into a PCR plate and then incubated for 6 min at 65° C. and 2 min at 98° C. PCR reactions were carried out with 1 ul of Genomic DNA containing solution by using AccuPrime™ Pfx DNA Polymerase (Thermofisher, 12344024). PCR conditions were 4 min at 94° C. (1×), followed by 15 s at 94° C., 15 s at 60° C. and 1 min at […]. The PCR products were purified and then Sanger sequenced by GENEWIZ. The following primer pairs spanning the target site were used for PCR (FW, forward; RV, reverse). Primers used by Sanger Sequencing are indicated by an asterisk (*): […]
Each sequence chromatogram was analyzed using TIDE (Tracking of Indels by Decomposition) software (http://tide.nki.nl) (See also Brinkman et al., Nucleic Acids Research, Volume 42, Issue 22, 16 Dec. 2014, Pages e168). Mock-electroporated samples were used as the reference sequence, and parameters were set to an indel size of 30 nt, and the decomposition window was set to cover the largest possible window with high-quality traces. Total indel (insertion and deletions) rates were obtained directly from TIDE plots. HDR rates were the percentage of events with an insertion of 10 Nucleotides. NHEJ Rates were calculated as Total Indel rate−HDR rate. GraphPad Prism 7 software was used to make Graphs and to calculate the all Statistical information.
(§2) mPB CD34^+ cells were electroporated with RNP (spCAS9 protein+NAV1.7 sgRNA) and NAV1.7 Non-PAM ssODN. Cells were then incubated with various concentrations of Compounds 661, 663 and 666. Experiments were done as described in the methods above, except lower concentrations of sgRNA (5 μg) and ssODN (0.2 μM) were used. Gene editing rates were determined by using TIDE assay 48 h after electroporation. Gene editing rates were expressed in percentages and classified as HDR and NHEJ.

mPB CD34+ cells [2] = assay: CD34+ cell viability (Cell Titer Glo), Example 19; type: cell-based, human; settings: untreated control = 100
Procedure: as §1
CD34^+ HSPCs cell survival was measured using Cell Titer Glo (CTG) reagent (Promega). 100 μl of cell suspension was mixed with 100 μl complete CTG reagent. The chemiluminescent signal was measure using a luminometer and % of viable cells was calculated as compared to control cells (cells not treated with the DNA-PK inhibitors).
as §2

CD34+ cells = assay: HDR gene editing rates in CD34+ cells, spCAS9 mRNA, AAVS1 (Example 20); type: cell-based, human; settings: AAVS1 sgRNA, AAVS1 Non-PAM ssODN, 72 hs, FIGS. 8-10
Procedure: To investigate the effect of DNA-PK inhibitors on HDR gene editing rates, CD34^+ cells were electroporated with spCAS9 mRNA, AAVS1 sgRNA and AAVS1 Non-PAM ssODN and then incubated with different concentrations of Compounds 666, 661, 663 or left untreated (Control). Gene editing rates were determined by using TIDE assay 72 hs after electroporation. Gene editing rates were expressed in percentages and classified as HDR and NHEJ. Cell survival rates are shown in percentages where control cells were set as 100%.

| SMILES | Ki (DNA-PK) | % NHEJ (mPB CD34+ cells [1]; Donor A, 0.37 μM) [%] | % HDR (mPB CD34+ cells [1]; Donor A, 0.37 μM) [%] | % Indels (mPB CD34+ cells [1]; Donor A, 1.11 μM) [%] | % NHEJ (mPB CD34+ cells [1]; Donor A, 1.11 μM) [%] | % WT (mPB CD34+ cells [1]; Donor A, 1.11 μM) [%] | % HDR (mPB CD34+ cells [1]; Donor A, 1.11 μM) [%] | % Indels (mPB CD34+ cells [1]; Donor A, 3.33 μM) [%] | % WT (mPB CD34+ cells [1]; Donor A, 3.33 μM) [%] | % HDR (mPB CD34+ cells [1]; Donor A, 3.33 μM) [%] | % NHEJ (mPB CD34+ cells [1]; Donor A, 10 μM) [%] | % Indels (mPB CD34+ cells [1]; Donor A, 10.00 μM) [%] | % WT (mPB CD34+ cells [1]; Donor A, 10.00 μM) [%] | % HDR (mPB CD34+ cells [1]; Donor A, 10 μM) [%] | % NHEJ (mPB CD34+ cells [1]; Donor D, 0.37 μM) [%] | % HDR (mPB CD34+ cells [1]; Donor D, 0.37 μM) [%] | % Indels (mPB CD34+ cells [1]; Donor D, 1.11 μM) [%] | % NHEJ (mPB CD34+ cells [1]; Donor D, 1.11 μM) [%] | % WT (mPB CD34+ cells [1]; Donor D, 1.11 μM) [%] | % HDR (mPB CD34+ cells [1]; Donor D, 1.11 μM) [%] | further results |
| --- | --- | --- | --- | --- | --- | --- | --- | --- | --- | --- | --- | --- | --- | --- | --- | --- | --- | --- | --- | --- | --- |
| CNC(=O)c1ccnc(N[C@H]2CC[C@@H](Oc3cc(N4CCOCC4)cc4nonc34)CC2)n1 [Compound 666, N-methyl-2-((4-((6-morpholinobenzo[c][1,2,5]oxadiazol-4-yl)oxy)cyclohexyl)amino)pyrimidine-4-carboxamide] | 1 nM and < 100 nM | 67.3 | 23.2 | 58.8 | 58.8 | 3.5 | 31.5 | 56.5 | 5.8 | 32.4 | 52 | 52 | 9.7 | 33.6 | 79.2 | 5.5 | 77.5 | 77.5 | 6.2 | 11 | % Indels (mPB CD34+ cells [1]; Donor D, 3.33 μM): 73.8%; % WT (mPB CD34+ cells [1]; Donor D, 3.33 μM): 5.3%; % HDR (mPB CD34+ cells [1]; Donor D, 3.33 μM): 14.3%; % NHEJ (mPB CD34+ cells [1]; Donor D, 10 μM): 69%; % Indels (mPB CD34+ cells [1]; Donor D, 10.00 μM): 69%; % WT (mPB CD34+ cells [1]; Donor D, 10.00 μM): 11.8%; % HDR (mPB CD34+ cells [1]; Donor D, 10 μM): 13.7%; Viability (mPB CD34+ cells [2]; Donor A, 1.11 μM): 65; Viability (mPB CD34+ cells [2]; Donor A, 3.33 μM): 42; Viability (mPB CD34+ cells [2]; Donor A, 10.00 μM): 36; Viability (mPB CD34+ cells [2]; Donor D, 1.11 μM): 76; Viability (mPB CD34+ cells [2]; Donor D, 3.33 μM): 69; Viability (mPB CD34+ cells [2]; Donor D, 10.00 μM): 34; HDR rates (CD34+ cells): improve HDR rates |
| CNC(=O)c1ccnc(N[C@H]2CC[C@@H](Oc3cc(N4CCOCC4)cc4nccnc34)CC2)n1 [Compound 661] | 1 nM | 66.2 | 21.8 | 59.4 | 59.4 | 4.2 | 31.7 | 57.8 | 5.1 | 32.2 | 47 | 47 | 18.9 | 28 | 78.1 | 6.9 | 77.5 | 77.5 | 6 | 10.8 | % Indels (mPB CD34+ cells [1]; Donor D, 3.33 μM): 76.7%; % WT (mPB CD34+ cells [1]; Donor D, 3.33 μM): 6.4%; % HDR (mPB CD34+ cells [1]; Donor D, 3.33 μM): 11.5%; % NHEJ (mPB CD34+ cells [1]; Donor D, 10 μM): 64.2%; % Indels (mPB CD34+ cells [1]; Donor D, 10.00 μM): 64.2%; % WT (mPB CD34+ cells [1]; Donor D, 10.00 μM): 11.1%; % HDR (mPB CD34+ cells [1]; Donor D, 10 μM): 13.4%; Viability (mPB CD34+ cells [2]; Donor A, 1.11 μM): 60; Viability (mPB CD34+ cells [2]; Donor A, 3.33 μM): 47; Viability (mPB CD34+ cells [2]; Donor A, 10.00 μM): 6; Viability (mPB CD34+ cells [2]; Donor D, 1.11 μM): 62; Viability (mPB CD34+ cells [2]; Donor D, 3.33 μM): 75; Viability (mPB CD34+ cells [2]; Donor D, 10.00 μM): 11; HDR rates (CD34+ cells): improve HDR rates |
